Assay: xn = mol fraction of the nth substance listed
Details: for surface tension liquid-gas: 293 K, Pendant drop shape; for viscosity / speed of sound / mass density: 102 kPa, Liquid; for viscosity: Concentric cylinders viscometry; for speed of sound: Single path-length method; for mass density: Vibrating tube method

CCCCCCCCCCCCCCCC [hexadecane] + CC1CCCCC1
Details | surface tension liquid-gas [mN/m]
x2 = 0.1018 | 26.8
x2 = 0.2 | 26.7
x2 = 0.3 | 26.4
x2 = 0.4004 | 26.2
x2 = 0.4999 | 26
x2 = 0.6 | 25.5
x2 = 0.7 | 25.2
x2 = 0.8 | 24.7
x2 = 0.9 | 24.3

Details | mass density [kg/m3] | speed of sound [m/s] | viscosity [mPa·s]
293.15 K, x2 = 0.1018 | 773 | 1350.5 | 3.14
293.15 K, x2 = 0.2 | 772.68 | 1343.5 | 2.83
293.15 K, x2 = 0.3 | 772.21 | 1334.5 | 2.54
293.15 K, x2 = 0.4004 | 771.85 | 1325.6 | 2.24
293.15 K, x2 = 0.4999 | 771.43 | 1316.2 | 1.96
293.15 K, x2 = 0.6 | 770.99 | 1303.5 | 1.68
293.15 K, x2 = 0.7 | 770.52 | 1289.9 | 1.42
293.15 K, x2 = 0.8 | 770.06 | 1274.4 | 1.174
293.15 K, x2 = 0.9 | 769.64 | 1256.8 | 0.943
298.15 K, x2 = 0.1018 | 769.51 | 1331.5 | 2.81
298.15 K, x2 = 0.2 | 769.17 | 1324.6 | 2.54
298.15 K, x2 = 0.3 | 768.68 | 1315.4 | 2.29
298.15 K, x2 = 0.4004 | 768.28 | 1306.5 | 2.03
298.15 K, x2 = 0.4999 | 767.82 | 1297.4 | 1.79
298.15 K, x2 = 0.6 | 767.29 | 1284.3 | 1.54
298.15 K, x2 = 0.7 | 766.75 | 1270.5 | 1.31
298.15 K, x2 = 0.8 | 766.16 | 1254.1 | 1.084
298.15 K, x2 = 0.9 | 765.56 | 1236 | 0.892
303.15 K, x2 = 0.1018 | 766.03 | 1312.7 | 2.52
303.15 K, x2 = 0.2 | 765.67 | 1306 | 2.29
303.15 K, x2 = 0.3 | 765.15 | 1296.5 | 2.08
303.15 K, x2 = 0.4004 | 764.7 | 1287.5 | 1.85
303.15 K, x2 = 0.4999 | 764.21 | 1278.4 | 1.65
303.15 K, x2 = 0.6 | 763.6 | 1265 | 1.43
303.15 K, x2 = 0.7 | 762.96 | 1250.9 | 1.22
303.15 K, x2 = 0.8 | 762.24 | 1233.9 | 1.012
303.15 K, x2 = 0.9 | 761.47 | 1215.2 | 0.82
313.15 K, x2 = 0.1018 | 759.08 | 1275.9 | 2.06
313.15 K, x2 = 0.2 | 758.66 | 1269.1 | 1.89
313.15 K, x2 = 0.3 | 758.08 | 1259.4 | 1.72
313.15 K, x2 = 0.4004 | 757.54 | 1250.2 | 1.55
313.15 K, x2 = 0.4999 | 756.95 | 1240.7 | 1.38
313.15 K, x2 = 0.6 | 756.18 | 1226.9 | 1.2
313.15 K, x2 = 0.7 | 755.37 | 1212.1 | 1.03
313.15 K, x2 = 0.8 | 754.38 | 1194.1 | 0.906
313.15 K, x2 = 0.9 | 753.24 | 1174.1 | 0.739
323.15 K, x2 = 0.1018 | 752.12 | 1239.9 | 1.72
323.15 K, x2 = 0.2 | 751.64 | 1233 | 1.58
323.15 K, x2 = 0.3 | 751 | 1223 | 1.45
323.15 K, x2 = 0.4004 | 750.36 | 1213.5 | 1.31
323.15 K, x2 = 0.4999 | 749.66 | 1203.7 | 1.2
323.15 K, x2 = 0.6 | 748.73 | 1189.3 | 1.05
323.15 K, x2 = 0.7 | 747.73 | 1173.8 | 0.91
323.15 K, x2 = 0.8 | 746.47 | 1154.9 | 0.768
323.15 K, x2 = 0.9 | 744.96 | 1133.7 | 0.629
333.15 K, x2 = 0.1018 | 745.15 | 1204.9 | 1.46
333.15 K, x2 = 0.2 | 744.61 | 1197.7 | 1.35
333.15 K, x2 = 0.3 | 743.89 | 1187.7 | 1.24
333.15 K, x2 = 0.4004 | 743.16 | 1177.8 | 1.16
333.15 K, x2 = 0.4999 | 742.34 | 1167.2 | 1.04
333.15 K, x2 = 0.6 | 741.25 | 1152.3 | 0.924
333.15 K, x2 = 0.7 | 740.03 | 1136 | 0.801
333.15 K, x2 = 0.8 | 738.5 | 1116.2 | 0.68
333.15 K, x2 = 0.9 | 736.61 | 1094.2 | 0.558

CC1CCCCC1 [methylcyclohexane] + CCCCCCCCCCCC
Details | surface tension liquid-gas [mN/m]
x1 = 0.1 | 24.86
x1 = 0.2001 | 24.84
x1 = 0.3 | 24.76
x1 = 0.4001 | 24.73
x1 = 0.5 | 24.5
x1 = 0.5999 | 24.34
x1 = 0.7 | 24.25
x1 = 0.7999 | 24.11
x1 = 0.9 | 23.95

Details | mass density [kg/m3] | speed of sound [m/s] | viscosity [mPa·s]
293.15 K, x1 = 0.1 | 749.76 | 1293.1 | 1.41
293.15 K, x1 = 0.2001 | 750.92 | 1288.3 | 1.34
293.15 K, x1 = 0.3 | 752.24 | 1283.1 | 1.26
293.15 K, x1 = 0.4001 | 753.73 | 1277.5 | 1.18
293.15 K, x1 = 0.5 | 755.42 | 1271.7 | 1.11
293.15 K, x1 = 0.5999 | 757.37 | 1265.3 | 1.03
293.15 K, x1 = 0.7 | 759.54 | 1258.9 | 0.95
293.15 K, x1 = 0.7999 | 762.21 | 1251.8 | 0.875
293.15 K, x1 = 0.9 | 765.42 | 1244.3 | 0.798
298.15 K, x1 = 0.1 | 746.11 | 1273.6 | 1.29
298.15 K, x1 = 0.2001 | 747.24 | 1268.7 | 1.23
298.15 K, x1 = 0.3 | 748.53 | 1263.4 | 1.16
298.15 K, x1 = 0.4001 | 749.97 | 1257.7 | 1.09
298.15 K, x1 = 0.5 | 751.63 | 1251.7 | 1.04
298.15 K, x1 = 0.5999 | 753.5 | 1245 | 0.968
298.15 K, x1 = 0.7 | 755.59 | 1238.2 | 0.898
298.15 K, x1 = 0.7999 | 758.17 | 1230.8 | 0.828
298.15 K, x1 = 0.9 | 761.26 | 1222.7 | 0.755
303.15 K, x1 = 0.1 | 742.46 | 1254.3 | 1.2
303.15 K, x1 = 0.2001 | 743.56 | 1249.3 | 1.14
303.15 K, x1 = 0.3 | 744.81 | 1243.9 | 1.08
303.15 K, x1 = 0.4001 | 746.21 | 1238 | 1.02
303.15 K, x1 = 0.5 | 747.8 | 1231.9 | 0.959
303.15 K, x1 = 0.5999 | 749.62 | 1224.8 | 0.889
303.15 K, x1 = 0.7 | 751.64 | 1217.8 | 0.826
303.15 K, x1 = 0.7999 | 754.12 | 1209.9 | 0.762
303.15 K, x1 = 0.9 | 757.08 | 1201.4 | 0.696
313.15 K, x1 = 0.1 | 735.13 | 1216.3 | 1.01
313.15 K, x1 = 0.2001 | 736.17 | 1211.1 | 0.965
313.15 K, x1 = 0.3 | 737.34 | 1205.4 | 0.916
313.15 K, x1 = 0.4001 | 738.65 | 1199.2 | 0.871
313.15 K, x1 = 0.5 | 740.13 | 1192.9 | 0.858
313.15 K, x1 = 0.5999 | 741.83 | 1185.2 | 0.8
313.15 K, x1 = 0.7 | 743.69 | 1177.6 | 0.744
313.15 K, x1 = 0.7999 | 745.98 | 1169 | 0.689
313.15 K, x1 = 0.9 | 748.69 | 1159.5 | 0.63
323.15 K, x1 = 0.1 | 727.76 | 1178.9 | 0.892
323.15 K, x1 = 0.2001 | 728.74 | 1173.5 | 0.852
323.15 K, x1 = 0.3 | 729.83 | 1167.6 | 0.813
323.15 K, x1 = 0.4001 | 731.05 | 1161.1 | 0.774
323.15 K, x1 = 0.5 | 732.41 | 1154.4 | 0.732
323.15 K, x1 = 0.5999 | 733.97 | 1146.3 | 0.681
323.15 K, x1 = 0.7 | 735.69 | 1138.2 | 0.634
323.15 K, x1 = 0.7999 | 737.77 | 1128.8 | 0.589
323.15 K, x1 = 0.9 | 740.22 | 1118.3 | 0.538
333.15 K, x1 = 0.1 | 720.35 | 1142.5 | 0.783
333.15 K, x1 = 0.2001 | 721.26 | 1137 | 0.752
333.15 K, x1 = 0.3 | 722.26 | 1130.7 | 0.716
333.15 K, x1 = 0.4001 | 723.38 | 1124 | 0.692
333.15 K, x1 = 0.5 | 724.63 | 1116.6 | 0.641
333.15 K, x1 = 0.5999 | 726.06 | 1108.3 | 0.606
333.15 K, x1 = 0.7 | 727.61 | 1099.9 | 0.564
333.15 K, x1 = 0.7999 | 729.48 | 1089.6 | 0.527
333.15 K, x1 = 0.9 | 731.68 | 1078.2 | 0.48

Source: the NIST ThermoML archive (doi:10.1021/acs.jced.8b00008)
